Reference: patent publication US10406227B2, “Photoactivated molecules for light-induced modulation of the activity of electrically excitable cells and methods of using same” (University of Southern California, priority 2012, dated 2019)

Assays:
[1] = test system: primary cultured mouse chromaffin cells; assay: Imaging RubpyC17 in live cells (membrane luminescence); assay type: cell-based
Procedure: Cells were imaged at 1-3 days after plating. The glass-bottomed chambers with adherent cells were washed twice with PBS and then filled with standard extracellular solution consisting of 140 mM NaCl, 2.8 mM KCl, 10 mM HEPES, 1 mM MgCl2, 2 mM CaCl2, and 10 mM glucose, pH adjusted to 7.2-7.4 and osmolarity adjusted to 290-310 mOsm. The chamber was then mounted on an Olympus IX70 inverted microscope stage for imaging, using a Cascade 512B EMCCD camera, operated by Metamorph software. Initial imaging was done with cells in extracellular solution without RubpyC17, first under brightfield to evaluate cell health and morphology, then under widefield argon ion laser illumination at 488 nm (Coherent, Innova 90-5, Santa Clara, Calif.), to evaluate autofluorescence. Next, the extracellular solution was removed and replaced with extracellular solution containing the RubpyC17 compound (10 μM in ≤0.01% DMSO, final concentrations). Cell images were then acquired with illumination at 488 nm (collected with a long-pass red emission filter). For electrophysiological experiments, RubpyC17 compound was added to the extracellular solution (2-10 μM in ≤0.01% DMSO, final concentrations as indicated) and cells were incubated for 1.5-45 min, as indicated, then washed with extracellular solution without RubpyC17. Some chromaffin cells were also exposed continuously to 490-900 nM RubpyC17-containing extracellular solution.
Illustrated here are rat insulinoma INS cells (FIG. 1C, top), human embryonic kidney (HEK293T) cells (FIG. 1C, middle), and primary cultured mouse chromaffin cells (FIG. 1C, bottom). […] All cell types preserved morphology for at least 10 minutes. […] One embodiment of the possible light-induced electron transfer is depicted in FIG. 1D.

[2] = test system: cell lines and primary cells; assay: Cell health / tolerance on RubpyC17 exposure (stable gigaseal, viability); assay type: cell-based
Procedure: However, in several embodiments, other organic ligands coupled to other transition metals are also used, with reduced and/or non-existent adverse side effects. […] Excessive and prolonged whole cell incubation with RubpyC17 (e.g., >10 μM for >5 min) may result in cell toxicity, since a stable gigaseal cannot be stably maintained in those cells. At this time, the mechanism behind the adverse effects on cell health upon RubpyC17 overexposure is not yet fully known. Since perforation was not achieved when a small patch of membrane was exposed to a high dose of RupbyC17, it was hypothesized that when an entire cell is overexposed to RubpyC17, there may be sufficient random interactions between excess RubpyC17 complex and endogenous surface molecules (i.e., proteins, carbohydrates, sugars), triggering signals that lead to cell health deterioration. However, when used in its appropriate dose range (e.g., <about 10 μM for cell lines and <about 2 μM for primary cells, according to one embodiment), RubpyC17 is tolerated by cells and consistently confers light sensitivity.

[3] = test system: chromaffin cells; assay: Voltage-clamp current-voltage relationship and steady-state activation before and during light; assay type: cell-based, mouse; settings: before vs during light illumination
Source text: FIGS. 5A-5H depict data from various experiments related to characteristics of RubpyC17-loaded cells. […] Inset images shown to the right of trace confirmed proper integration of RubpyC17 in patched cells. FIGS. 5C-5E show the light-induced action potential firing in chromaffin cells was not due to biophysical changes in voltage-gated ion channels as there were no significant changes in current-voltage relationships (C-D) nor in steady-state activation curve (E) in RubpyC17-loaded chromaffin cells before (open circle) or during ([…]) light illumination. […] Peak inward currents from each stimulation jump were plotted against corresponding stimulating voltages (n=6). […] Data from representative cell is shown (n=5). […] Currents resulting from capacitor-like behavior of chromaffin cell membranes during hyperpolarizing jumps to −85 mV from a resting membrane potential of −80 mV were recorded 5 min following giga-seal formation for amphoterecin B (bottom trace) or 10 min following giga-seal formation for RubpyC17 (top trace).
To examine whether light-activated RubpyC17 can directly interact and open or block endogenous ion channels, HEK293T cells were preincubated with RubpyC17, and patch-clamped in a voltage-clamp configuration. Voltage-clamp configuration allowed the cells to be clamped at a potential where most voltage-gated ion channels are closed (approximately −80 mV). […]

[Ru(bpy)2(bpy-C17)](PF6)2 [RubpyC17]
time cell morphology preserved ([1]; 10 μM RubpyC17): at least 10 minutes | incorporation into plasma membrane (membrane-localized luminescence) ([1]; 10 μM in bath, 488 nm excitation): rapidly and stably incorporates into mammalian cell membranes | membrane luminescence after removal from bath solution ([1]; 10 minutes after RubpyC17 removal): still observed | tolerated dose range ([2]; cell lines): < 10 µM | whole cell incubation concentration that may result in cell toxicity ([2]; for >5 min, stable gigaseal not maintained): > 10 µM | viability of chromaffin cells ([2]; incubations of ˜30 min): continued viability | tolerated dose range ([2]; primary cells): < 2 µM | effect on biophysical properties of endogenous ion channels (I-V, steady-state activation) [3]: does not alter the biophysical properties of endogenous ion channels
